Measurements: patent US20210393651A1, “TARGETING THE ONCOGENIC TRANSCRIPTION FACTOR STAT5 WITH MINERALOCORTICOID ANALOGUES” (DANA-FARBER CANCER INSTITUTE, INC., priority 2018, published 2021)

Assays:
[1] = test system: STAT5; experiment: STAT5-dependent luciferase reporter in T47D cells (NCAM2-luc/T47D), prolactin-stimulated; format: cell-based
Method: (§1) FIG. 1A is a bar chart wherein reporter cell lines were treated with the indicated doses of fludrocortisone for two hours, after which cytokines were added to activate the appropriate transcription factor. Luciferase activity was quantified by luminometry six hours later. FIG. 1B is a bar chart wherein T47D cells were transfected with one of two luciferase constructs regulated by a STAT5-dependent promoter (NCAM-luc or B-luc) together with a normalizing control, and the effect of fludrocortisone on prolactin-induced gene expression was determined. Jak inhibitor 1 (JAKinhib; 1 μM) was used as a positive control. Error bars represent mean±SD for two independent experiments. FIG. 1C is a series of bar charts wherein the indicated breast cancer cell lines were pre-treated with vehicle (dimethylsulfoxide (DMSO)) or fludrocortisone (1 μM) for 1 hour, then left untreated or stimulated with prolactin (100 ng/ml) to induce STAT5 activation. RNA was harvested 1.5 hours later, and expression of the indicated STAT5 target genes was measured using quantitative reverse transcription polymerase chain reaction (RT-PCR) and normalized to the expression of 18s. Error bars represent mean±SD for triplicates.
FIG. 2A-FIG. 2E is a series of bar graphs showing that the endogenous mineralocorticoid aldosterone inhibits STAT5 transcriptional function. FIG. 2A is a bar chart wherein T47D cells were transfected with an MCR-dependent luciferase reporter and a normalizing control, and normalized luciferase activity was determined after the indicated treatment. FIG. 2B is a bar chart wherein T47D cells transfected with an MCR-dependent luciferase reporter and a normalizing control were treated with the indicated dose of aldosterone, after which luciferase activity was determined. FIG. 2C is a bar chart wherein T47D-luc cells were pre-treated with the indicated concentration of aldosterone for 1 hour, then stimulated with prolactin (100 ng/ml) for 6 hours, after which luciferase activity was determined. […] RNA was harvested 1.5 hours later, and expression of STAT5 target genes was measured using quantitative RT-PCR and normalized to the expression of 18s RNA. […] Luciferase activity was quantified by luminometry six hours following prolactin stimulation. […]
T47D, ZR75 (American Type Culture Collection, Manassas Va.), and MDA-MB-468, were maintained in DMEM containing 10% FBS. […] STAT1, STAT3, STAT5 and NF-κB-dependent luciferase activities were measured in STAT-luc/2FTGH, STAT-luc/U3A, NCAM2-luc/T47D and NF-κB-luc/293 cells, respectively (Nelson et al., 2008 Blood 112, 5095-5102). Luciferase activity was quantified using the Bright-Glo Luciferase assay system (Promega, Madison, Wis.). […]

[2] = test system: NF-κB; experiment: NF-κB-dependent luciferase reporter (NF-κB-luc/293 cells); format: cell-based; details: concentrations up to 33 μM
Method: as §1, with “FIG. 1C is a series of bar charts wherein the indicated breast cancer cell lines were pre-treated with vehicle (dimethylsulfoxide (DMSO)) or fludrocortisone (1 μM) for 1 hour, then left untreated or stimulated with prolactin (100 ng/ml) to induce STAT5 activation.” left out, “Error bars represent mean±SD for triplicates.” left out
(§2) T47D, ZR75 (American Type Culture Collection, Manassas Va.), and MDA-MB-468, were maintained in DMEM containing 10% FBS. […] STAT1, STAT3, STAT5 and NF-κB-dependent luciferase activities were measured in STAT-luc/2FTGH, STAT-luc/U3A, NCAM2-luc/T47D and NF-κB-luc/293 cells, respectively (Nelson et al., 2008 Blood 112, 5095-5102). Luciferase activity was quantified using the Bright-Glo Luciferase assay system (Promega, Madison, Wis.).

[3] = test system: STAT1; experiment: STAT1-dependent luciferase reporter (STAT-luc/2FTGH cells); format: cell-based; details: concentrations up to 33 μM
Method: as §1, with “FIG. 1C is a series of bar charts wherein the indicated breast cancer cell lines were pre-treated with vehicle (dimethylsulfoxide (DMSO)) or fludrocortisone (1 μM) for 1 hour, then left untreated or stimulated with prolactin (100 ng/ml) to induce STAT5 activation.” left out, “Error bars represent mean±SD for triplicates.” left out
as §2

[4] = test system: STAT3; experiment: STAT3-dependent luciferase reporter (STAT-luc/U3A cells); format: cell-based; details: concentrations up to 33 μM
Method: as §1, with “FIG. 1C is a series of bar charts wherein the indicated breast cancer cell lines were pre-treated with vehicle (dimethylsulfoxide (DMSO)) or fludrocortisone (1 μM) for 1 hour, then left untreated or stimulated with prolactin (100 ng/ml) to induce STAT5 activation.” left out, “Error bars represent mean±SD for triplicates.” left out
as §2

[5] = test system: STAT5; experiment: Dual luciferase assay, parental T47D cells transfected with NCAM-luc or B-luc; format: cell-based; details: prolactin-induced
Method: as §1, with “triplicates. […]” for “triplicates.”

[6] = test system: STAT5 target genes AREG and CISH; experiment: Expression of endogenous STAT5 target genes in breast cancer cell lines by quantitative RT-PCR; format: cell-based; details: 1 hour pre-treatment; for expression of endogenous STAT5 target genes AREG and CISH: 1 μM, prolactin 100 ng/ml
Method: as §1
FIG. 2A-FIG. 2E is a series of bar graphs showing that the endogenous mineralocorticoid aldosterone inhibits STAT5 transcriptional function. FIG. 2A is a bar chart wherein T47D cells were transfected with an MCR-dependent luciferase reporter and a normalizing control, and normalized luciferase activity was determined after the indicated treatment. FIG. 2B is a bar chart wherein T47D cells transfected with an MCR-dependent luciferase reporter and a normalizing control were treated with the indicated dose of aldosterone, after which luciferase activity was determined. FIG. 2C is a bar chart wherein T47D-luc cells were pre-treated with the indicated concentration of aldosterone for 1 hour, then stimulated with prolactin (100 ng/ml) for 6 hours, after which luciferase activity was determined. […] Luciferase activity was quantified by luminometry six hours following prolactin stimulation. […]

[7] = test system: MCR; experiment: MCR-dependent luciferase reporter in T47D cells; format: cell-based; details: for activation of MCR, MCR-specific luciferase reporter: T47D cells (FIG. 2A)
Method: FIG. 2A-FIG. 2E is a series of bar graphs showing that the endogenous mineralocorticoid aldosterone inhibits STAT5 transcriptional function. FIG. 2A is a bar chart wherein T47D cells were transfected with an MCR-dependent luciferase reporter and a normalizing control, and normalized luciferase activity was determined after the indicated treatment. FIG. 2B is a bar chart wherein T47D cells transfected with an MCR-dependent luciferase reporter and a normalizing control were treated with the indicated dose of aldosterone, after which luciferase activity was determined. FIG. 2C is a bar chart wherein T47D-luc cells were pre-treated with the indicated concentration of aldosterone for 1 hour, then stimulated with prolactin (100 ng/ml) for 6 hours, after which luciferase activity was determined. FIG. 2D is a bar chart wherein T47D cells were pre-treated with vehicle control or aldosterone (0.01 μM) for 1 hour, after which prolactin (100 ng/ml) was added to induce STAT5 activation. RNA was harvested 1.5 hours later, and expression of STAT5 target genes was measured using quantitative RT-PCR and normalized to the expression of 18s RNA. FIG. 2E is a bar chart wherein T47D cells stably expressing a STAT5-dependent luciferase reporter gene were treated with 1 μM fludrocortisone at the indicated time points relative to prolactin stimulation. Luciferase activity was quantified by luminometry six hours following prolactin stimulation. Error bars represent mean±SD for triplicates.

[8] = test system: STAT5; experiment: Immunoblot of STAT5 phosphorylation and nuclear localization in T47D cells after prolactin; format: cell-based; details: for phosphorylation and nuclear localization of STAT5: 1 hour pre-treatment, 15 minutes after prolactin, cellular fractionation (FIG. 3B)
Method: (§3) FIG. 3A-FIG. 3C is a series of photographs of blots and bar charts showing that fludrocortisone inhibits STAT5 transcriptional function without affecting its phosphorylation or genome binding. FIG. 3A is a photograph of a blot wherein T47D cells were pretreated with vehicle control or fludrocortisone for 1 hour after which prolactin was added. Cells were harvested at the indicated time point and immunoblotting was performed. FIG. 3B is a photograph of a blot wherein T47D cells were pretreated with vehicle, fludrocortisone, or Jak inhibitor 1 for 1 hour after which prolactin was added. Cells were collected 15 minutes after prolactin stimulation and cellular fractionation and immunoblotting was performed. FIG. 3C is a photograph of a blot wherein T47D cells were pretreated with vehicle (DMSO) or fludrocortisone for 1 hour, then left untreated or stimulated with prolactin. 30 minutes later, cells were harvested and ChIP was performed to analyze STAT5 and pol II binding to the CISH promoter region. Error bars represent mean±SD for two independent experiments.
Nuclear and cytoplasmic fractionation was performed using the Nuclear Extract Kit (Active Motif, Carlsbad, Calif.). Immunoblots were performed using antibodies recognizing STAT5 (sc-482), MCR (sc-11412) and RNA polymerase II (pol II) (sc-9001) (all from Santa Cruz Biotechnology, Santa Cruz Calif.) and tyrosine-phosphorylated STAT5 (9131L) (from Cell Signaling Technology, Danvers, Mass.).
Next, it was considered whether fludrocortisone was inhibiting STAT5 function by blocking a key step in its activation. To address this, the effect of fludrocortisone on the kinetics of STAT5 phosphorylation following prolactin stimulation was evaluated. […] It was then evaluated whether nuclear translocation of activated STAT5 was affected by fludrocortisone treatment. T47D cells were either untreated or pretreated with fludrocortisone or JAK inhibitor 1, then left unstimulated or treated with prolactin, after which nuclear and cytoplasmic fractions were separated and analyzed for phosphorylated STAT5. […]

[9] = test system: STAT5 and RNA polymerase II binding to CISH promoter; experiment: ChIP of STAT5 and pol II binding to the CISH promoter region in T47D cells; format: cell-based; details: 1 hour pre-treatment, 30 minutes after prolactin (FIG. 3C)
Method: as §3, with “FIG. 3C is a photograph of a blot wherein T47D cells were pretreated with vehicle (DMSO) or fludrocortisone for 1 hour, then left untreated or stimulated with prolactin. 30 minutes later, cells were harvested and ChIP was performed to analyze STAT5 and pol II binding to the CISH promoter region. Error bars represent mean±SD for two independent experiments.” left out
ChIP was performed as described (Nelson et al., 2004 J Biol Chem 279, 54724-54730). […] Quantitative PCR was performed in triplicate on ChIP product or input using SYBR Green PCR Master Mix (Applied Biosystems, Foster City, Calif.) and region-specific primers as follows: CISH, forward, 5′-CCCGCGGTTCTAGGAAGAC-3′ (SEQ ID NO: 1), reverse, 5′-CGAGCTGCTGCCTAATCCT-3′ (SEQ ID NO: 2); Rhodopsin, forward, 5′-[…]-3′ (SEQ ID NO: 3), reverse, 5′-[…]-3′ (SEQ ID NO: 4). Relative binding at the CISH promoter site was normalized to input and expressed as mean fold change relative to binding at the Rhodopsin site, which is a control DNA binding site known not to bind STAT5. […]

[10] = test system: STAT5; experiment: STAT5 activity in hematopoietic cells; format: cell-based
[11] = test system: STAT5; experiment: STAT5 function (test not described)
[12] = T47D reporter cells, 1 μM (FIG. 2E)

## C[C@]12CCC(=O)C=C1CC[C@H]1[C@@H]3CC[C@](O)(C(=O)CO)[C@@]3(C)C[C@H](O)[C@@]12F [fludrocortisone, 9α-fluoro-11β,17α,21-trihydroxypregn-4-ene-3,20-dione]
[1]; Homo sapiens, T47D cells stably expressing STAT5-dependent luciferase reporter, prolactin 100 ng/ml, read-out: IC50, inhibition of STAT5-dependent luciferase activity
  IC50: ~100 nM
[1]; [12]
  prolactin-stimulated STAT5 luciferase activity, compound added after prolactin: some inhibitory effect
  prolactin-stimulated STAT5 luciferase activity, compound added simultaneously with prolactin: still effectively inhibit
[2]
  effect on NF-κB-dependent luciferase expression: essentially no effect
[3]
  effect on STAT1-dependent luciferase expression: essentially no effect
[4]
  effect on STAT3-dependent luciferase expression: essentially no effect
[5]
  STAT5-dependent luciferase activity, B-luc (BCL6) promoter: reduced STAT5-dependent luciferase activity
  STAT5-dependent luciferase activity, NCAM-luc promoter: reduced STAT5-dependent luciferase activity
[6]; T47D cells
  expression of endogenous STAT5 target genes AREG and CISH: effectively inhibits
[6]; ZR75 cells
  expression of endogenous STAT5 target genes AREG and CISH: effectively inhibits
[7]
  activation of MCR, MCR-specific luciferase reporter: activate MCR
[8]; 1 hour pre-treatment (FIG. 3A)
  dynamics of STAT5 activation (phosphorylation kinetics) following prolactin: no difference
[8]
  phosphorylation and nuclear localization of STAT5: no effect
[9]
  STAT5 binding to CISH regulatory site (ChIP): no effect
  prolactin-induced recruitment of RNA polymerase II (pol II) to CISH promoter site (ChIP): did inhibit
[10]
  induced or constitutive STAT5 activity: does not appear to inhibit

## C[C@]12CCC(=O)C=C1CC[C@@H]1[C@@H]2[C@@H](O)C[C@]2(C=O)[C@@H](C(=O)CO)CC[C@@H]12 [aldosterone]
[1]; T47D-luc cells, 1 hour pre-treatment, prolactin 100 ng/ml for 6 hours (FIG. 2C)
  inhibition of STAT5-dependent reporter gene, dose response: dose-dependent inhibition
[6]; T47D cells, 0.01 μM, prolactin 100 ng/ml (FIG. 2D)
  expression of endogenous STAT5 target genes: inhibited
[7]
  activation of MCR, MCR-specific luciferase reporter: activate MCR
[7]; T47D cells, indicated doses (FIG. 2B)
  dose dependence of MCR activation, MCR-dependent luciferase reporter: activates MCR in a dose-dependent manner

## CC(C)(C)c1nc2c3cc[nH]c(=O)c3c3cc(F)ccc3c2[nH]1 [JAK inhibitor 1]
[8]
  phosphorylation and nuclear localization of STAT5: complete inhibition

## CC(=O)S[C@@H]1CC2=CC(=O)CC[C@]2(C)[C@H]2CC[C@@]3(C)[C@@H](CC[C@@]34CCC(=O)O4)[C@H]12 [spironolactone]
[11]
  STAT5 function: inhibit STAT5 function
